How the values were obtained:
Type in all cases: cell-based
[1] = system: γH2AX protein in H460 cells; assay: WB detection of DNA damage marker; conditions: 0.1-1 nM AST-3424, 5 µM Nutlin-3, 24 hours (Figures 20-22)
Description: In the first, the second and the third experiment of the effect of AST-3424 in combination with Nutlin-3 on Ser15-p53, Ser20-p53, Total p53, MDM2 and p21 proteins in H460 cells in example 5, the applicant also performed WB detection of γH2AX protein, with the results shown in Figures 20, 21 and 22.

[2] = system: p53, Rad51, MDM2 and p21 proteins in HPAF-II cells; assay: WB detection of p53 pathway proteins in p53 mutant cells; conditions: 60 nM AST, 8 µM Nutlin-3, 24 hours (Figure 23)
Procedure: • 1)HPAF-II cell suspension was added to a 24-well plate, with a cell density of 300000 /well and 995 µL of medium per well. • 2) The cells were cultured overnight in an incubator at 37°C, 5% CO2. • 3) Compound treatment. After 24 hours of cell plating, the cells were grouped and dosed according to different cells.
HPAF-II were grouped as: 1% DMSO treated group, 60nM AST treated group, 8 µM Nutlin-3 treated group, AST 60nM + Nutlin-3 8 µM treated group.
Monotherapy: After 24 hours of cell plating, each well was supplied with 5µL of test compounds at different concentrations: 1% DMSO, AST 1.5nM, Nutlin-3 1µM, AST 60nM and Nutlin-3 8µM, shaken gently to ensure even mixing, and then placed at 37°C, 5% CO2 in an incubator.
Combination therapy: After 24 hours of cell plating, each well was supplied with 5µL of 1µM Nutlin-3 and Nutlin-3 8µM respectively for pre-treatment four 2 hours. Then the corresponding cells were added with […] of 1.5nM AST and 60nM AST, shaken gently to ensure even mixing, and then placed at 37°C, 5% CO2 in an incubator.
4) After incubating the 24-well plates in a 37°C, 5% CO2 incubator for 24 hours, the cell protein lysate was collected for WB detection, and the WB detection results were shown in Figure 23. […]

HPAF-II cells = assay: In vitro cell proliferation inhibition (96-well, CTG, 72 hours); conditions: Homo sapiens, monotherapy, applicant's previous cancer cell proliferation inhibition test data
[3] = system: Ser15-p53, Ser20-p53, Total p53, MDM2 and p21 proteins in H460 cells; assay: WB detection of p53 protein pathway; conditions: 0.1-1 nM AST-3424, 5 µM Nutlin-3, 24 hours, three experiments (Figures 11-13)
Procedure: Overview of the experimental process: • 1) H460 cell suspension was added to a 24-well plate, with a cell density of 80000 /well and 995 µL of medium per well. • 2) The cells were cultured overnight in an incubator at 37°C, 5% CO2. • 3) Compound Treatment
After 24 hours of cell plating, according to the protocol, each cell line experiment was grouped as: Monotherapy: After 24 hours of cell plating, each well was supplied with 5µL of test compounds at different concentrations: 0.5% DMSO, 0.1nM AST-3424 and 5 µM Nutlin-3, shaken gently to ensure even mixing, and then placed at 37°C, 5% CO2 in an incubator.
Combination therapy: After 24 hours of cell plating, each well was supplied with 5µL of test compounds at different concentrations. The cells were pre-treated with 5µM Nutlin-3 for 2 hours and then were added with 0.1nM AST-3424, shaken gently to ensure even mixing, and then placed at 37°C, 5% CO2 in an incubator.
4) Cell protein lysates were collected for WB analysis.
Combination therapy group: • Adding 0.1 nM AST-3424 for pre-treatment for 2 hours, and then adding 5 µM Nutlin-3 for co-treatment for 22 hours; • Adding 0.3 nM AST-3424 for pre-treatment for 2 hours, and then adding 5 µM Nutlin-3 for co-treatment for 22 hours; • Adding 1 nM AST-3424 for pre-treatment for 2 hours, and then adding 5 µM Nutlin-3 for co-treatment for 22 hours.

With `C[C@H](OP(=O)(N1CC1)N1CC1)c1ccc([N+](=O)[O-])c(Oc2cccc(C(=O)N(C)C)c2)c1` [AST-3424] the “γH2AX protein amount, a biomarker of DNA double-strand damage (WB)” value [1] was “upregulate the amount of γH2AX protein”.
With `O=[N+]([O-])c1ccc(C(OP(=O)(N2CC2)N2CC2)C(F)(F)F)cc1Oc1ccc(-c2ccc(F)cc2)c(F)c1` (centres unmarked) [AST] the “expression of RAD51 protein (WB)” value [2] was “promoted the expression of RAD51 protein”, the “expression of p53, its downstream proteins p21 and MDM2 (WB)” value [2] was “no effect” and the IC50 (HPAF-II cells) was 329 nM.
For `COc1ccc(C2=NC(c3ccc(Cl)cc3)C(c3ccc(Cl)cc3)N2C(=O)N2CCNC(=O)C2)c(OC(C)C)c1` (racemic) [Nutlin-3], the “phosphorylation of p53 (Ser15-p53 and Ser20-p53), protein expression of total-p53, MDM2 and p21 (WB)” value [3] was “upregulated the expression levels of p53 and its downstream proteins p21 and MDM2”.
